Measurements: the NIST ThermoML archive (doi:10.1016/j.fluid.2010.12.012)

Test: wn = mass fraction of the nth substance listed
Conditions: 294.9 K, Liquid; for viscosity: Cone and plate viscometry; for mass density: Vibrating tube method

CC [ethane] + CO
Conditions	mass density [kg/m3]	viscosity [mPa·s]
1196 kPa, w1 = 0.056	750	0.54
2123 kPa, w1 = 0.12	720	0.43
3130 kPa, w1 = 0.225	671	0.32
